In brackets after ≈: the same amount, converted by molar mass. Several values for one entry are separate records, joined by “and”; a condition that tells them apart may be missing. Identical values can stand only once. Entries after “also recorded” stand apart in the source; their conditions may differ.
Tests used:
[1] = system: ScIleRS Thr571 to Tyr or Arg variants; test: TSA, ScIleRS with Thr571 mutated to Tyr or Arg; assay type: binding, Saccharomyces cerevisiae
Procedure: The binding of RM-A to IleRS and the impact of intermediate analogue (Ile-AMS, MedChemExpress) or substrates on binding were evaluated by the fluorescence-based thermal shift assay (TSA). Ligand binding usually stabilizes the protein during the thermal denaturation process, and tighter binding usually causes a larger positive shift in the protein melting temperature (Tm)[45]. Briefly, mixtures with a final volume of 20 μL containing 150 mM NaCl, 100 mM HEPES (pH 7.5), 10% glycerol, 5 mM DTT, 2 μg of IleRS, 4× SYPRO orange fluorescence dye (Sigma-Aldrich) and different ligands (50 μM RM-A, 2 mM L-isoleucine, 2 mM ATP, or 50 μM Ile-AMS) were prepared in 96-well plates. The mixtures were incubated at 25 °C for 10 min and then heated from 25 °C to 95 °C at a rate of 1 °C/min. The fluorescence intensity was recorded by a StepOnePlus Real-Time PCR instrument (Life Technologies), and the maximums of the first derivatives were determined to calculate Tm values. Each Tm value was an average of triple assays.

Candida albicans = system: Candida albicans; design: method as in PMID 1429226; conditions: pH 3.0; cited from earlier work
[2] = cited from earlier work
[3] = system: protein translation in rabbit reticulocyte lysate; test: Rescue of RM-A-inhibited in vitro translation by C-terminal truncated human IleRS or its variants; conditions: 200 nM RM-A; 3 μM C-terminal truncated human IleRS R459A
Procedure: (§1) After incubating at 30 °C for 1.5 h, 2.5 μL of the reaction was transferred to a 384-well plate and mixed with 25 μL of Luciferase Assay Reagent (Promega). The luminescence was read on a FlexStation 3 multimode microplate reader (Molecular Devices).

[4] = system: protein translation in rabbit reticulocyte lysate; test: In vitro translation assay of luciferase mRNA in rabbit reticulocyte lysate; conditions: replicates I-III
Procedure: as §1

[5] = system: protein translation in rabbit reticulocyte lysate; test: Rescue of RM-A-inhibited in vitro translation by C-terminal truncated ScIleRS or its variants; conditions: for Luciferase luminescence, 200 nM RM-A: replicates I-III
Procedure: as §1

osteoclasts (OCs) = conditions: cited from earlier work
[6] = system: ovarian cancer and prostate cancer growth; conditions: cited from earlier work
[7] = system: other AARS family members (LeuRS, ValRS); conditions: cited from earlier work

Q: For CCCC[C@@]1(OC(=O)CCC(=O)O)CC[C@]2(CC[C@H](C)[C@@H](C/C=C(C)/C=C/[C@H](O)[C@@H](C)/C=C/C(=O)O)O2)O[C@H]1/C=C/C(C)=C/C(=O)O [RM-A, reveromycin A], which “binding of RM-A to ScIleRS variant (TSA)” value [1] is on record?
A: The value was “blocked the binding”.

Q: And the MIC (Candida albicans)?
A: Its MIC is 3 µM (≈ 1.98 µg/mL).

Q: What about the “bone loss in ovariectomized mice” value [2] of the same compound?
A: The value was “suppress bone loss”.

Q: What about the protein translation rescued [3] of the same compound?
A: Its protein translation rescued is “about 1%”.

Q: What about the “Luminescence (in vitro protein translation)” value ([4]; RM-A Conc 2 nM) of the same compound?
A: Its value is 190845 and 181490 and 183251.

Q: What about the “Luminescence (in vitro protein translation)” value ([4]; RM-A Conc 8 nM) of the same compound?
A: Its value is 186149 and 190937 and 185903.

Q: And the “Luminescence (in vitro protein translation)” value ([4]; RM-A Conc 20 nM)?
A: The value was 175716 and 187102 and 188453.

Q: And the “Luminescence (in vitro protein translation)” value ([4]; RM-A Conc 40 nM)?
A: Its value is 163497 and 184611 and 167689.

Q: And the “Luminescence (in vitro protein translation)” value ([4]; RM-A Conc 80 nM)?
A: The value was 7616.05 and 18001.9 and 7173.32.

Q: What about the “Luminescence (in vitro protein translation)” value ([4]; RM-A Conc 200 nM) of the same compound?
A: The value was 0 and 17.007 and 33.997.

Q: And the “Luminescence (in vitro protein translation)” value ([4]; RM-A Conc 800 nM)?
A: The value was 17.076 and 8.503 and 25.498.

Q: And the “Luminescence (in vitro protein translation)” value ([4]; RM-A Conc 4000 nM)?
A: Its value is 0 (2×) and 50.995.

Q: What about the protein translation rescued ([5]; 200 nM RM-A, 3 μM C-terminal truncated ScIleRS variant with 600GRKMSKSLK608 replaced by -GSGS-) of the same compound?
A: Its protein translation rescued is “approximately 80%”.

Q: And the “Luciferase luminescence, 200 nM RM-A” value ([5]; 1 μM LeuRS (control))?
A: Its value is 27.35 and 44.205 and 52.747.

Q: And the “Luciferase luminescence, 200 nM RM-A” value ([5]; 1 μM ScIleRS D527A)?
A: The value was 63.694 and 45.571 and 34.895.

Q: And the “Luciferase luminescence, 200 nM RM-A” value ([5]; 1 μM ScIleRS F48A)?
A: Its value is 235.026 and 174.094 and 121.866.

Q: What about the “Luciferase luminescence, 200 nM RM-A” value ([5]; 1 μM ScIleRS F48Y) of the same compound?
A: Its value is 90.991 and 72.914 and 115.108.

Q: And the “Luciferase luminescence, 200 nM RM-A” value ([5]; 1 μM ScIleRS F191A)?
A: The value was 156.784 and 298.475 and 281.964.

Q: What about the “Luciferase luminescence, 200 nM RM-A” value ([5]; 1 μM ScIleRS P90A) of the same compound?
A: The value was 35.934 and 81.508 and 9.028.

Q: What about the “Luciferase luminescence, 200 nM RM-A” value ([5]; 1 μM ScIleRS R454A) of the same compound?
A: Its value is 2038.19 and 7956.68 and 7915.89.

Q: And the “Luciferase luminescence, 200 nM RM-A” value ([5]; 1 μM ScIleRS R460A)?
A: The value was 63.694 and 82.028 and 79.355.

Q: What about the “Luciferase luminescence, 200 nM RM-A” value ([5]; 1 μM ScIleRS R462A) of the same compound?
A: Its value is 219.125 and 149.005 and 122.71.

Q: What about the “Luciferase luminescence, 200 nM RM-A” value ([5]; 1 μM ScIleRS T572A) of the same compound?
A: Its value is 2721.39 and 8649.69 and 8296.21.

Q: What about the “Luciferase luminescence, 200 nM RM-A” value ([5]; 1 μM ScIleRS V89A) of the same compound?
A: The value was 11067.8 and 10750 and 22533.8.

Q: What about the “Luciferase luminescence, 200 nM RM-A” value ([5]; 1 μM ScIleRS W402A) of the same compound?
A: Its value is 203.886 and 487.005 and 223.56.

Q: And the “Luciferase luminescence, 200 nM RM-A” value ([5]; 1 μM ScIleRS W456A)?
A: The value was 72.793 and 72.914 and 17.634.

Q: And the “Luciferase luminescence, 200 nM RM-A” value ([5]; 1 μM ScIleRS W529A)?
A: The value was 72.281 and 54.7 and 8.724.

Q: And the “Luciferase luminescence, 200 nM RM-A” value ([5]; 1 μM ScIleRS Y571A)?
A: Its value is 36.141 and 88.172 and 61.066.

Q: What about the “Luciferase luminescence, 200 nM RM-A” value ([5]; 1 μM ScIleRS del_KMSKS) of the same compound?
A: Its value is 1832.65 and 1584.88 and 8043.93.

Q: What about the “Luciferase luminescence, 200 nM RM-A” value ([5]; 3 μM C-terminal truncated ScIleRS Wild-type) of the same compound?
A: Its value is 109159 and 108773 and 113203.

Q: And the “Luciferase luminescence, 200 nM RM-A” value ([5]; 3 μM LeuRS (control))?
A: The value was 68.753.

Q: And the “Luciferase luminescence, 200 nM RM-A” value ([5]; 3 μM ScIleRS D527A)?
A: Its value is 8750.65 and 7744.02 and 12892.

Q: And the “Luciferase luminescence, 200 nM RM-A” value ([5]; 3 μM ScIleRS F48A)?
A: Its value is 2036.32 and 2422.33 and 1991.71.

Q: What about the “Luciferase luminescence, 200 nM RM-A” value ([5]; 3 μM ScIleRS F48Y) of the same compound?
A: Its value is 94.913 and 96.194 and 77.119.

Q: What about the “Luciferase luminescence, 200 nM RM-A” value ([5]; 3 μM ScIleRS F191A) of the same compound?
A: The value was 75050.4 and 67335.6 and 51978.3.

Q: And the “Luciferase luminescence, 200 nM RM-A” value ([5]; 3 μM ScIleRS P90A)?
A: Its value is 99 and 117.664 and 109.334.

Q: What about the “Luciferase luminescence, 200 nM RM-A” value ([5]; 3 μM ScIleRS R454A) of the same compound?
A: The value was 116437 and 113410 and 111486.

Q: What about the “Luciferase luminescence, 200 nM RM-A” value ([5]; 3 μM ScIleRS R460A) of the same compound?
A: The value was 1567.03 and 1752.95 and 2655.99.

Q: What about the “Luciferase luminescence, 200 nM RM-A” value ([5]; 3 μM ScIleRS R462A) of the same compound?
A: Its value is 27718.3 and 25034.8 and 41655.4.

Q: What about the “Luciferase luminescence, 200 nM RM-A” value ([5]; 3 μM ScIleRS T572A) of the same compound?
A: The value was 111134 and 106950 and 105037.

Q: What about the “Luciferase luminescence, 200 nM RM-A” value ([5]; 3 μM ScIleRS V89A) of the same compound?
A: The value was 100692 and 113636 and 118400.

Q: What about the “Luciferase luminescence, 200 nM RM-A” value ([5]; 3 μM ScIleRS W402A) of the same compound?
A: The value was 50779.2 and 51210.1 and 59141.2.

Q: And the “Luciferase luminescence, 200 nM RM-A” value ([5]; 3 μM ScIleRS W449A)?
A: The value was 115488 and 110666 and 106192.

Q: What about the “Luciferase luminescence, 200 nM RM-A” value ([5]; 3 μM ScIleRS W456A) of the same compound?
A: Its value is 51.771 and 96.194 and 77.119.

Q: And the “Luciferase luminescence, 200 nM RM-A” value ([5]; 3 μM ScIleRS W529A)?
A: The value was 60.194 and 17.229 and 34.495.

Q: And the “Luciferase luminescence, 200 nM RM-A” value ([5]; 3 μM ScIleRS Y571A)?
A: Its value is 11774.7 and 10611.3 and 9010.55.

Q: What about the “Luciferase luminescence, 200 nM RM-A” value ([5]; 3 μM ScIleRS del_KMSKS) of the same compound?
A: Its value is 101448 and 100214 and 102556.

Q: And the “apoptosis of osteoclasts (OCs)” value (osteoclasts (OCs))?
A: Its value is “potently induce the apoptosis”.

Q: What about the “more cytotoxic to OCs than to other types of cells, including OC progenitor cells” value (osteoclasts (OCs)) of the same compound?
A: The value was “at least 100 times”.

Q: And the “ovarian cancer and prostate cancer growth in vivo” value [6]?
A: Its value is “inhibit”.

Q: What about the “inhibition of other AARS family members (LeuRS, ValRS)” value [7] of the same compound?
A: Its value is “insensitive; also recorded: does not show significant inhibition”.

Reference: paper PMC7955072 (Nature Communications, 2021)
